Consider eleven compounds from ChEMBL document CHEMBL1201862, “PubChem BioAssay data set” (2004).

In assay [1] the target is T1, Hexokinase HKDC1 (Homo sapiens, UniProt Q2TB90).
T1 sequence (Q2TB90 whole entry): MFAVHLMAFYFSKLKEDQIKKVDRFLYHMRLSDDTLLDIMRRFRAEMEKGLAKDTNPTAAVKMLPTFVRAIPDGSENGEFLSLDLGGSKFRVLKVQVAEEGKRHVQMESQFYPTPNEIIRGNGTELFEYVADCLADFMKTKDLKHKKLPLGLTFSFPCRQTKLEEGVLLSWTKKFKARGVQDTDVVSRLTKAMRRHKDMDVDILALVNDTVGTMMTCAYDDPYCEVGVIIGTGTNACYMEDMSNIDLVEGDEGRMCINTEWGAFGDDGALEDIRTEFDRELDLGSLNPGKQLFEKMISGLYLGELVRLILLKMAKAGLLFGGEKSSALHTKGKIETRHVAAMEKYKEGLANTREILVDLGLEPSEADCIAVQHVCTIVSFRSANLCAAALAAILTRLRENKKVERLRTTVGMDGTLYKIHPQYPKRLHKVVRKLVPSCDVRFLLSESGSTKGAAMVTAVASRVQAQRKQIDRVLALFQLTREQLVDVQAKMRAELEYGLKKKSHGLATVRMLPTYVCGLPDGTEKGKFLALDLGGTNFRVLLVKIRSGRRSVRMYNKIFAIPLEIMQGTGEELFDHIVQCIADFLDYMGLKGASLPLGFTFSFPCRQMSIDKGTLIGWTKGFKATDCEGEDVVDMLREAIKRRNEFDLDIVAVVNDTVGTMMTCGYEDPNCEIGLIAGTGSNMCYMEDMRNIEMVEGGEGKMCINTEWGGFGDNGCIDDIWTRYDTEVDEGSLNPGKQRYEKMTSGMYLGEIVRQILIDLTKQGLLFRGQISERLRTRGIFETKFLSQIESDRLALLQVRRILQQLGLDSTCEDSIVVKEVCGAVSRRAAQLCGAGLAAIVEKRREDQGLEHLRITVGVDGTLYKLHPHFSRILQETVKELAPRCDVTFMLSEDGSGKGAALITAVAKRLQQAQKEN
Nature of the assay: HKDC1 hexokinase inhibitors, dose response, biochemical, W721R variant (AID 504729). In kind it is functional.

In assay [2] the target is T2, Hepatocyte nuclear factor 4-alpha (Homo sapiens, UniProt P41235).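 Further: biochemical luminescence-based dose-response counterscreen measuring inhibition of HNF4 dimerization, run alongside a screen for blockers of ABHD5–perilipin-5 interaction; split luciferase complementation of HNF4 fusion proteins in cell lysate measuring dimerization.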
T2 sequence (P41235 whole entry): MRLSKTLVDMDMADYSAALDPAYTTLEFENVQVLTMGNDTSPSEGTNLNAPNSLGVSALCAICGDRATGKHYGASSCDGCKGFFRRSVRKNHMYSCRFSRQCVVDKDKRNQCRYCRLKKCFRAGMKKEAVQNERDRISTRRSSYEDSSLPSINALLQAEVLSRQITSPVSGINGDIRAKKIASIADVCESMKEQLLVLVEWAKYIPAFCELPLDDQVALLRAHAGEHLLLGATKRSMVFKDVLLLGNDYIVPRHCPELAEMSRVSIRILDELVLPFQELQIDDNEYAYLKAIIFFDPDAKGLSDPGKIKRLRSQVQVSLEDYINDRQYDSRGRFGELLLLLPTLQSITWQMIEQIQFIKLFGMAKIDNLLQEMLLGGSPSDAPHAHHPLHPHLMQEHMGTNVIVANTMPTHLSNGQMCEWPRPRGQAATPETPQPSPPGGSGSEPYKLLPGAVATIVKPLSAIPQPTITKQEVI
In kind it is functional, cell-based.

Assay [3] concerns the target Glucose-6-phosphate 1-dehydrogenase (Homo sapiens, UniProt P11413). Briefly: human G6PD enzyme inhibitors, dose response, selectivity assay for P. falciparum G6PD inhibitor project, biochemical, fluorescence (AID 504792). In kind it is functional.
The nature of assay [4]: HEp-2 cell cytotoxicity, dose response, cytotoxicity control for RSV inhibitor project, HTS (AID 2410). The conditions noted are these: human respiratory syncytial virus. In kind it is functional.
Assay [5] is described as follows: cells.
In assay [6] the target is Bcl-2-like protein 10 (Homo sapiens, UniProt Q9HD36). Briefly: displacers of TR3 peptide from Bcl-B, primary screen, selectivity assay for Bfl-1 inhibitor project, biochemical, fluorescence polarization, FITC-TR3 peptide (AID 748).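 Further: fluorescence polarization from a fluorescein-labelled TR3 peptide binding purified Bcl-B.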 On the technique in general: Polarisation of emitted light reports the rotation of a fluorescent probe.
Bcl-2-like protein 10, sequence (Q9HD36 whole entry): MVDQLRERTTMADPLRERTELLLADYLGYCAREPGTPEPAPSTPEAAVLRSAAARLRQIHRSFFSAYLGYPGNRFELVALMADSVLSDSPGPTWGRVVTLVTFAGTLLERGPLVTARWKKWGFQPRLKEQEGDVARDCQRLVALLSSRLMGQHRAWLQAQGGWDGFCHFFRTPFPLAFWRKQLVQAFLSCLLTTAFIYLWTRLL
Assay [7] deals with Streptococcus sp. 'group A'. Briefly: growth inhibition of control SK(-) GAS strain, dose response, counter-screen for streptokinase expression inhibitor project, luminescence, kanamycin, BacTiterGlo, confirmation (AID 1900). The format is functional, organism-based. On the technique in general: Counterscreens check selectivity or assay interference.
For assay [8], the system named is Streptococcus. Briefly: Group A Streptococcus viability loss, dose response, counter-screen for streptokinase expression inhibitor project, luminescence, BacTiterGlo (AID 1915).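 Further: potency for reduction of bacterial viability or growth.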 The format is functional, organism-based.
Assay [9] addresses X-box-binding protein 1 (Homo sapiens, UniProt P17861). In kind it is functional, Cricetulus griseus.
Assay [10] has as its target T3, Streptokinase A (Streptococcus pyogenes serotype M1, UniProt P10520).
T3 sequence (P10520 whole entry): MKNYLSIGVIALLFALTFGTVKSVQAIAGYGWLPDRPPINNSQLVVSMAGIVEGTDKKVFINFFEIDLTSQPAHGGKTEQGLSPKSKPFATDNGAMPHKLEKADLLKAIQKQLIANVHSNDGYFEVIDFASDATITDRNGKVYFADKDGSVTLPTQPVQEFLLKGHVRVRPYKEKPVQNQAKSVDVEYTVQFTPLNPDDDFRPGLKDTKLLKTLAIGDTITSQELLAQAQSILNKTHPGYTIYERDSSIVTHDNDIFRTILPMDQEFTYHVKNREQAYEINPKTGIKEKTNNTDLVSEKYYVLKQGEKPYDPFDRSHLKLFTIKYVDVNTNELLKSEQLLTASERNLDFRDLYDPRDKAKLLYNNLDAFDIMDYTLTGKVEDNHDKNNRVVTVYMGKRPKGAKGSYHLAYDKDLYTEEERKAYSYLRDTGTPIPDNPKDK
Nature of the assay: S. pyogenes streptokinase expression inhibitors, potency, dose response, plasminogen activation absorbance, OD405 (AID 1914).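 Further: secreted streptokinase activity via plasminogen activation per viability signal from cell pellet.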 The format is functional, Streptococcus pyogenes M1 GAS.

The target in assay [11] is Cytochrome P450 2C9 (Homo sapiens, UniProt P11712). The settings on record: Potency.
Cytochrome P450 2C9, sequence (P11712 whole entry): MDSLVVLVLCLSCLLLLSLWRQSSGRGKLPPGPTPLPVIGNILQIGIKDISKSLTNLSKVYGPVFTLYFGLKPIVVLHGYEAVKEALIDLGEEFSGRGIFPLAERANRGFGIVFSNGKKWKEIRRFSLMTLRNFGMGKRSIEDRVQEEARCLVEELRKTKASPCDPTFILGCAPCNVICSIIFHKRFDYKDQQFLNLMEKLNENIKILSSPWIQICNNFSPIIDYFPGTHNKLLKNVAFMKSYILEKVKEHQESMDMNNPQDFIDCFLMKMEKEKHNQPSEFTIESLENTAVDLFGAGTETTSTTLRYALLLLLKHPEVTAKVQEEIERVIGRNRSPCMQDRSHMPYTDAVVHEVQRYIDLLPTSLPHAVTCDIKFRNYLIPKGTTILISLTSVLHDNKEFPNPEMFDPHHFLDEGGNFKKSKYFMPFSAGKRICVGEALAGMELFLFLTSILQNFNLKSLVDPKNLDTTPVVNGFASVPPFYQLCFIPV
The target in assay [12] is Luciferin 4-monooxygenase (Photinus pyralis, UniProt P08659). Briefly: firefly luciferase enzyme inhibitors, dose response, biochemical, luminescence (AID 1891).
Luciferin 4-monooxygenase, sequence (P08659 whole entry): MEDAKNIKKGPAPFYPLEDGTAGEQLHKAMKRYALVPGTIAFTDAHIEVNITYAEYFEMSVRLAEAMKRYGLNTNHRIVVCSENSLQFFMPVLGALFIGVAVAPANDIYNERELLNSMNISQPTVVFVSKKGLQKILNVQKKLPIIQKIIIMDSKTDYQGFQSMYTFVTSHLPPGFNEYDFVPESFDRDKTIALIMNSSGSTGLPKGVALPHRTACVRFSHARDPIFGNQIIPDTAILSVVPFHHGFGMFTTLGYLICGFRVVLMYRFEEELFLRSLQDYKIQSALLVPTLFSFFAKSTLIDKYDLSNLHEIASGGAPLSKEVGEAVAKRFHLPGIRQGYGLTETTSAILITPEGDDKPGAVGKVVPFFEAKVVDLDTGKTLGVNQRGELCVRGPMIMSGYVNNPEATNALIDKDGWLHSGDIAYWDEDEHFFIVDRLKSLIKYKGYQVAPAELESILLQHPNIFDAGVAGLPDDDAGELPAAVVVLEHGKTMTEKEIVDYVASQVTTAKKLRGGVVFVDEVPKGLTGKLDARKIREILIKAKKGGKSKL
Assay [13] is described as follows: Luminescence Cell-Based Dose Response HTS to Identify Inhibitors of 5'UTR Stem-Loop Driven Prion Protein mRNA Translation in H4 Neuroglioblastoma Cells. [Related pubchem assays: 1827 (Project Summary), 1813 (Primary HTS)]. In kind it is functional.
Assay [14] can be described thus: Luminescence-based counterscreen assay for KLF5 inhibitors: dose response cell-based high throughput screening assay to identify cytotoxic compounds using the IEC-6 intestinal epithelial cell line. [Related pubchem assays: 1700 (Primary screen.), 1834 (Confirmation screen.), 1858 (Summary AID.), 1905 (Counterscreen.)]. The format is functional.
Assay [15] in a line: Luminescence Cell-Based Dose Confirmation HTS to Identify Inhibitors of Platelet Dense Granule Release. [Related pubchem assays: 1663 (Primary HTS), 1678 (Summary of Project)]. In kind it is functional.
The nature of assay [16]: inhibitors of firefly luciferase expression or activity, dose response, H4 neuroglioma cells, luminescence (AID 1990). In kind it is functional, cell-based.
In assay [17] the target is T4, Heat shock factor protein 1 (Mus musculus, UniProt P38532).
T4 sequence (P38532 whole entry): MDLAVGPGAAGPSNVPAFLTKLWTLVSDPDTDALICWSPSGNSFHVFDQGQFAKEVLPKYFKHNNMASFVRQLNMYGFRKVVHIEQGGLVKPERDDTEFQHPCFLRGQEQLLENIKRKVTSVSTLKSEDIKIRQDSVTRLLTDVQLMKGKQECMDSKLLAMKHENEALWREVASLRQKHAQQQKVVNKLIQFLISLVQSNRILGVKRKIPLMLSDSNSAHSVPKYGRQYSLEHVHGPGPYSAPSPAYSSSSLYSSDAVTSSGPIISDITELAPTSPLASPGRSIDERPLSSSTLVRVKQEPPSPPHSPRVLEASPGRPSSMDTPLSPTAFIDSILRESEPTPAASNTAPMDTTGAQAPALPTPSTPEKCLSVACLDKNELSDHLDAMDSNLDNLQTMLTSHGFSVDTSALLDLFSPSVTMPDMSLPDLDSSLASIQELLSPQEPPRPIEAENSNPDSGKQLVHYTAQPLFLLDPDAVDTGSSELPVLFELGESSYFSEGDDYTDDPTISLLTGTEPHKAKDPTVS
Briefly: inhibition of MG132-induced HSE-luciferase signal, confirmation, cell-based, NIH3T3, luminescence, dose retest (AID 2382).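 Further: NIH3T3 fibroblasts with HSF1-driven luciferase reporter stressed by proteasome inhibitor MG132; luminescence from HSF1-driven luciferase expression after 8 hours of MG132 stress.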 The format is functional.

Assay [18] can be described thus: inhibitors of SNCA 5'UTR-driven reporter translation, confirmation, H4 neuroglioma cells, luminescence (AID 1988). The format is functional, cell-based.
The target in assay [19] is Neurotensin receptor type 1 (Homo sapiens, UniProt P30989). The format is functional.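 Further: Image-based confirmatory dose-response assay measuring agonist activity at NTR1; NTR1-expressing U2OS osteosarcoma cells imaged for beta-arrestin GFP spot formation; agonist potency where compounds increase beta-arrestin recruitment.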
Neurotensin receptor type 1, sequence (P30989 whole entry): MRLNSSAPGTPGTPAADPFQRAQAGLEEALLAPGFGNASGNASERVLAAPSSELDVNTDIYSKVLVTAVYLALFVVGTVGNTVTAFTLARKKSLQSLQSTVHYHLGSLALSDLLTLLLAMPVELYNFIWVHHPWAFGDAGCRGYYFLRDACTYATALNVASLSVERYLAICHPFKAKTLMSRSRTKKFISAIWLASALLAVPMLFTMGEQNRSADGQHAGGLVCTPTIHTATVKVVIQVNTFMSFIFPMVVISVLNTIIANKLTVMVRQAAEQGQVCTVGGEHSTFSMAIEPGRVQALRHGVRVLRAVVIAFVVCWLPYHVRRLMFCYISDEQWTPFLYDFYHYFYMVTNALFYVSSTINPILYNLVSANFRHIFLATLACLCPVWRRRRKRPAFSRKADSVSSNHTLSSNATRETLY
Assay [20] addresses Protein-tyrosine kinase 2-beta (Homo sapiens, UniProt Q14289).

SMILES strings stand for the structures. Calls of active or inactive are those of the source. Where only a bound is given, the exact number is not on record here.
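Wherever Absolute IC50 (XBP1) is given: confirmatory dose-response counter-screen serving a CHOP assay.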

Protein-tyrosine kinase 2-beta, sequence (Q14289 whole entry): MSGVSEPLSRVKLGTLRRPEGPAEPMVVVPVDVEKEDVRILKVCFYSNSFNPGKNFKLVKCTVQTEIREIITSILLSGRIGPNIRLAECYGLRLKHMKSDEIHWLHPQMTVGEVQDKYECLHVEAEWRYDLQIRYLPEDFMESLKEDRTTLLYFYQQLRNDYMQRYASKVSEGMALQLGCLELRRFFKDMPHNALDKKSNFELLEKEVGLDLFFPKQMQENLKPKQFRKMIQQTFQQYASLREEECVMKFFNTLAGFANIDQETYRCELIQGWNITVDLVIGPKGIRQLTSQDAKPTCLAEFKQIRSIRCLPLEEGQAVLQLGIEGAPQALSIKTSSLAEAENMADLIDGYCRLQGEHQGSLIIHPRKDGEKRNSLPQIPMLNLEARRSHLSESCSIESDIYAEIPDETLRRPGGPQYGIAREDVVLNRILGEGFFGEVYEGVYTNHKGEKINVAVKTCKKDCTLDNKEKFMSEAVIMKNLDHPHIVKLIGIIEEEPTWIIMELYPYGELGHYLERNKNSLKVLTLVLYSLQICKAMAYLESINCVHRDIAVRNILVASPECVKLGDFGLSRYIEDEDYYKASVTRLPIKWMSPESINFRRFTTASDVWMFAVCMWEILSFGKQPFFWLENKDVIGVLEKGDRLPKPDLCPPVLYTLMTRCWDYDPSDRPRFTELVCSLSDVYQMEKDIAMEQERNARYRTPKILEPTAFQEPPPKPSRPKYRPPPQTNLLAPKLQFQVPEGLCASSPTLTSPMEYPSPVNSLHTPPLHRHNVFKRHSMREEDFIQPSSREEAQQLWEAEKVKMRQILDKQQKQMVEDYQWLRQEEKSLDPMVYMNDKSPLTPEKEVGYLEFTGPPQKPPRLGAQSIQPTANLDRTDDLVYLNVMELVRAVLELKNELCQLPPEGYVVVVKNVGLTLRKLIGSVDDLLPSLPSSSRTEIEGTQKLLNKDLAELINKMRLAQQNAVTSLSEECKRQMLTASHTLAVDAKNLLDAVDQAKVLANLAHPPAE
X-box-binding protein 1, sequence (P17861 whole entry): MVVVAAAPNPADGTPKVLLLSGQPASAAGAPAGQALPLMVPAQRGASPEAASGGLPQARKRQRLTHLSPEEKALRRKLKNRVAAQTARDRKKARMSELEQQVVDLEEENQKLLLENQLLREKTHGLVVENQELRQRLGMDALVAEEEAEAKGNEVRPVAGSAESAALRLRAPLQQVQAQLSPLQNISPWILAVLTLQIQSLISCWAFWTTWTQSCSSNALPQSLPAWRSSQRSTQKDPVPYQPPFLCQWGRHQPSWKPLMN
Glucose-6-phosphate 1-dehydrogenase, sequence (P11413 whole entry): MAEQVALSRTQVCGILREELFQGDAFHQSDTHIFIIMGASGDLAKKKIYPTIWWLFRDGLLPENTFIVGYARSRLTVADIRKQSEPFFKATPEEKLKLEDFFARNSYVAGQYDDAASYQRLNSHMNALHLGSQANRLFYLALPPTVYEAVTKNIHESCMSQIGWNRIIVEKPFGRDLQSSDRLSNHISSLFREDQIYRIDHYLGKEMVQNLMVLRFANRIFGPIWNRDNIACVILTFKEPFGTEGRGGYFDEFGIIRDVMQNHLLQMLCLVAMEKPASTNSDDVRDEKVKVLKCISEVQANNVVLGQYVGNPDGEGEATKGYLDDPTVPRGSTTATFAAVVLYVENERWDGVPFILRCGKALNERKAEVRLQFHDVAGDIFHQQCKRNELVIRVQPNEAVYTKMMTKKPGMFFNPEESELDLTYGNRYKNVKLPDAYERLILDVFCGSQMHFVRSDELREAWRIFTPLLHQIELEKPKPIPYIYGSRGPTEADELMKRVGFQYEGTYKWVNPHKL

As for `Cc1ccc(SC2=C(Sc3ccc(C)cc3)C(=O)c3ccccc3C2=O)cc1`, the results for the IC50 in assay [1], in assay [2] and in [3] were 15.9 µM (active), 1.38 µM (active) and > 80 µM (inactive), respectively.
In the case of `Cc1cc(Cl)cc(C)c1OCCn1ccnc1`, the cytotoxic concentration (CC50) (in general, the concentration that lowers cell viability or growth by half) in [4] was 33.5 µM (active). The IC50 (usually the concentration needed to halve the response being measured) in assay [5] was 32.9 µM (active).
Take `O=c1c([N+](=O)[O-])cc(C(F)(F)F)cn1Cc1cccc(Cl)c1`: the IC50 in assay [6] was > 100 µM (inactive).
`COC(=O)C(Nc1ccccc1Cl)(c1cc(C)c(O)c(C)c1)C(F)(F)F` (stereo unspecified): the EC50 (usually the concentration that produces a half-maximal response) in assay [7] is 1.58 µM (active); in assay [8], 9.48 µM (active); in assay [10], 17.2 µM (active). For the same compound, the “Absolute IC50 (XBP1)” value in [9] is less than 10 µM.
For `O=C(c1ccc(F)cc1)N1CCN2C(=O)c3ccccc3C12c1ccccc1` (stereo unspecified), in [5], the IC50 is 31.2 µM (active).
With `CC(C)C[C@@H](CC(=O)N[C@@H](CCC(=O)O)CC(=O)O)NC(=O)[C@@H]1CCCC[C@H]1NC(=O)C[C@@H](NC(=O)C[C@H](CO)NC(=O)[C@@H]1CCCC[C@H]1N)C(C)C`, the AC50 (in general, the concentration at which the activity in the assay is half-maximal) in assay [11] was 20 µM (inconclusive).
Take `COc1ccc(OC)c(N/C=C/C(=O)c2ccccc2)c1`: the EC50 in [12] is 0.276 µM (active); in assay [13] it was 1.35 µM (active); in assay [15], 0.982 µM (active); in assay [16] it was 6.32 µM (inconclusive); in assay [17], 0.476 µM (inconclusive); in [18] it was 3.8 µM (active). Further, the IC50 in assay [14] is > 39.8 µM (not active).
Turning to `CC(=O)OCC1OC(C#Cc2ccc(C(C)(C)C)cc2)C=CC1OC(C)=O` (stereo unspecified), in [11], the AC50 is 6.31 µM (inconclusive).
`COc1ccc(-n2ncc3c(N4CCN(Cc5ccccc5)CC4)ncnc32)cc1`: in assay [19], the EC50 was 35.9 µM (inactive).
For the compound `COc1cc(/N=C/c2c(O)[nH]c3ccccc23)cc(OC)c1OC`, the IC50 in [14] was > 39.8 µM (not active); in [20], 3.15 µM (active). In addition, the values for the concentration giving a half-maximal response (EC50) in [16] and in [18] were < 0.1 µM (active) and 0.108 µM (active), respectively.
For `COC(=O)COc1ccc(/C=N/NC(=O)CN(c2ccccc2OC)S(=O)(=O)c2ccccc2)cc1`, the EC50 in assay [19] is 6.65 µM (active).
